Values quoted from earlier work as cited in US20030129242A1, “Sterile filtered nanoparticulate formulations of budesonide and beclomethasone having tyloxapol as a surface stabilizer” (priority 2002, published 2003).

solubility in chloroform (chloroform)	solubility in ethanol (ethanol)	solubility in heptane (heptane)	solubility in water	Structure (SMILES)
freely soluble	sparingly soluble	practically insoluble	practically insoluble	CCCC1O[C@@H]2C[C@H]3C4CCC5=CC(=O)C=CC5(C)[C@H]4[C@@H](O)CC3(C)C2(C(=O)CO)O1 (mixture of isomers) [Budesonide, (RS)-11,16, 17,21-Tetrahydroxy-pregna-1,4-diene-3,20-dione cyclic 16,17-acetal with butraldehyde]
–	–	–	practically insoluble	CC1(C)O[C@@H]2C[C@H]3[C@@H]4C[C@H](F)C5=CC(=O)C=C[C@]5(C)[C@H]4[C@@H](O)C[C@]3(C)[C@]2(C(=O)CO)O1 [Flunisolide, 6α-fluoro-11β, 16α, 17,21-tetrahydroxy-pregna-1,4-diene-3,20-dione cyclic-16,17-acetal with acetone]
